# Tests used:
# Format in all cases: cell-based
# GR [1] = target: T1, GR (Homo sapiens, UniProt P04150); assay: CHO-GR B4.8 MMTV-luciferase induction of gene expression (agonistic); design: expressed in transfected cells; conditions: for Max. eff., MMTV-luc induction: relative to maximal effect of prednisolone (100%)
# T1 sequence (P04150 1-777): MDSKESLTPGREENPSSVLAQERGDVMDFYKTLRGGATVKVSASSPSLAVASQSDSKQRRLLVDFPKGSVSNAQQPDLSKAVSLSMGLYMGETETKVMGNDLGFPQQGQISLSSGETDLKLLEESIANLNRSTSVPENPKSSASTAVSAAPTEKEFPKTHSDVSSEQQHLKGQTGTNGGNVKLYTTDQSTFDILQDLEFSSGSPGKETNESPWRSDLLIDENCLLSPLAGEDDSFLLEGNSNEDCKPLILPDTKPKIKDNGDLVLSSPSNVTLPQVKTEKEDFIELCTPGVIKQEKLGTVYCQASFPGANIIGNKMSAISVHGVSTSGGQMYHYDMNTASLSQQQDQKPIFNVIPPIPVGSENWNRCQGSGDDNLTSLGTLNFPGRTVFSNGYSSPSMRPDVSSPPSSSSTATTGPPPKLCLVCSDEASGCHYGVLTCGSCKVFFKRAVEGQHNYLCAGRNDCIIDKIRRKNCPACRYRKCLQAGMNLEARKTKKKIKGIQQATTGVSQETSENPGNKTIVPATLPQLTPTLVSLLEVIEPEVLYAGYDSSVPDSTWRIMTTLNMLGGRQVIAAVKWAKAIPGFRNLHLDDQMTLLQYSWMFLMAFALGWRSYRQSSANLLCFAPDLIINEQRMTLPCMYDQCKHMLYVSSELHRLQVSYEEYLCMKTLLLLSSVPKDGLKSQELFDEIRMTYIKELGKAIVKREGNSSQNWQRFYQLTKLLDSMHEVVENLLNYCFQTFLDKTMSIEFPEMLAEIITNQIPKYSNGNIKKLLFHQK
# Text: For monitoring both human steroid receptor agonistic as well as antagonistic activity of compounds, Chinese hamster ovary (CHO) K1 cells stably co-transfected with the specific human steroid receptor and its respective reporter construct were used (as previously described).
# For human glucocorticoid receptor (GR)-specific activity CHO-GR B4.8 cells containing both recombinant human GR as well as a reporter construct consisting of the mouse mammary tumor virus (MMTV) promotor and the luciferase reporter gene, were used. Compound was incubated alone (in the agonistic setup) or with 50 nM dexamethasone (in the antagonistic setup) overnight. Hereafter, 200 µl medium was removed and 50 µl luciferine substrate solution from the LucLite luminescence kit (Packard, Meriden, USA) was added. […] Percentage maximal antagonistic efficacy was related to the maximal antagonistic efficacy of reference GR antagonist Org 34116. Similar procedures were followed for the other human steroid receptor assays (for more detailed information see Supportive Information) (SI text).
# For human glucocorticoid receptor (GR)-specific activity CHO-GR B4.8 cells containing both recombinant human GR as well as a reporter construct consisting of the mouse mammary tumor virus (MMTV) promotor and the luciferase reporter gene, were used. Compound was incubated alone (in the agonistic setup) or with 50 nM dexamethasone (in the antagonistic setup) in microtiter white culture plates seeded with 2.4 x 10^4 cells / 200 µl Dulbecco’s MEM/Nutrient Mix F12 medium (Gibco) supplemented with 5% charcoal treated defined bovine calf serum supplement (DBCSS, Hyclone, Utah, USA), and 10 U/ml Penicillin-10μg/ml Streptomycin (GibcoBRL) overnight at 37°C in the dark under a humidified atmosphere flushed with 5% CO2 in air. Hereafter, 200 µl medium was removed and 50 µl luciferine substrate solution from the LucLite luminescence kit (Packard, Meriden, USA) was added. After 10 minutes (when cell lysis was complete) luminescence of each sample was counted using a Topcount microplate luminescence counter. Percentage maximal agonistic efficacy was related to the maximal efficacy of dexamethasone. Percentage maximal antagonistic efficacy was related to the maximal antagonistic efficacy of reference GR antagonist Org 34116. EC50 value was calculated by 4-parameter curve fitting using the effect of 6 compound concentrations.
# GR [2] = target: T1, GR; assay: U2OS GR.G9 IFNγ/TNFα-induced MCP-1 release (repression); design: expressed in transfected cells; host or cells: U2OS (U2OS GR.G9); conditions: for Max. eff., repression of MCP-1 release: IFNγ/TNFα, relative to prednisolone (100%)
# Method: To determine the repressive activity of GR ligands, cell line U2OS GR.G9, the human osteoblastic cell line U2OS, stably transfected with human GR, was used. Cells (10^4 cells/well) were incubated in 384-wells plates, in the presence of 50 ng/ml TNFα (R&D systems)/100 ng/ml IFNγ (Peprotech) and compound, for 18 hours. Hereafter, a mixture of two different antibodies to hMCP-1, one Eu-labeled and one APC-labeled, were added. One hour later the time-resolved fluorometric resonance energy transfer (TR-FRET) signal was measured. (for more detailed information see Supportive Information) (SI text).
# U2OS GR.G9 cells (10^4 cells/well) in Dulbecco's MEM / HAM F12 medium supplemented with 5% charcoal treated bovine calf serum (Hyclone) (v/v) and Penicillin (10 U/ml) -Streptomycin (10 μg/ml) were incubated in 384-wells plates, in the presence of 50 ng/ml TNFα (R&D systems) / 100 ng/ml IFNγ (Peprotech) and compound, for 18 hours in a humidified atmosphere at 37°C under 6.5% CO2. Hereafter, a mixture of 2.2 nM anti-hMCP-1 labeled with fluorescent donor Europium (Eu) and 16.6 nM anti-hMCP-1 labeled with fluorescent acceptor Allophycocyanin (APC) was added to each well and left at roomtemperature for 1 hour. Finally, the time-resolved fluorometric resonance energy transfer (TR-FRET) signal was measured with the Victor^2TM V, 1420 Multilabel Counter (Wallac). Using 4-parameter curve fitting, IC50 values for the compounds were determined.
# [3] = tested on: human neonatal foreskin fibroblasts; assay: BioMAP assay HDF3CGF; conditions: 1 μM, prednisolone = 100%
# Method: Next, effects of Org 214007-0 on the cytokine release by primary human whole blood cells treated with either LPS or anti-CD28/PMA were tested. […] These assays make use of different types of primary human cells, in this case coronary artery smooth muscle cells and neonatal foreskin fibroblasts, in an inflammatory environment, [28]. […] When all repressed and induced proteins are taken into account, a relative TI value for Org 214007-0 could be deduced of 1.7 in coronary artery smooth muscle cells and of 2.2 in neonatal foreskin fiboblasts.
compound,measurement,setting,value
Cc1nnsc1C(=O)N[C@H]1CCN2c3ccc(C#N)cc3[C@@H](C)c3ccccc3[C@@H]2C1 [Org 214007-0],EC50,"GR [1]; CHO cells co-transfected with human GR and MMTV-luciferase, mean (±SD), read-out: EC50, MMTV-luc induction",5.1 nM
same,"Max. eff., MMTV-luc induction",GR [1],32%
same,"Max. eff., MMTV-luc induction",GR [1]; listed as Org,32 (±8.1) %
same,IC50,"GR [2]; IFNγ (100 ng/ml)/TNFα (50 ng/ml), 18 hours",0.36 nM
same,"Max. eff., repression of MCP-1 release",GR [2],81%
same,"Max. eff., repression of MCP-1 release",GR [2]; listed as Org,81 (±16) %
same,"Max. eff., activation of PAI-1",[3],55%
"C[C@]12C=CC(=O)C=C1CC[C@@H]1[C@@H]2[C@@H](O)C[C@@]2(C)[C@H]1CC[C@]2(O)C(=O)CO [prednisolone, reference compound]","Max. eff., MMTV-luc induction",GR [1],100%
same,"Max. eff., repression of MCP-1 release",GR [2],100 (±9.6) %
same,"Max. eff., activation of PAI-1",[3],100%
